Results published in US12559474B2, “Triazine derivatives having virus replication inhibitory activity and pharmaceutical composition comprising the same” (priority 2021, dated 2026).
Read-outs that look alike come from different tables or passages of the source.

Key:
SARS-CoV-2 = experiment: microbe, parasite or virus in culture; type: cell-based; conditions: Severe acute respiratory syndrome coronavirus 2, VeroE6/TMPRSS2, 72 h, 50% SARS-CoV-2 infected cell death inhibitory concentration, VeroE6/TMPRSS2 cells, 3 days culture
SARS-CoV-2 3CL protease = SARS-CoV-2 3CL protease (Severe acute respiratory syndrome coronavirus 2, UniProt P0DTD1); experiment: biochemical; conditions: 50% SARS-CoV-2 3CL protease inhibitory concentration, read-out: IC50

| Structure (SMILES) | EC50 (SARS-CoV-2; class symbols) [µM] | IC50 (SARS-CoV-2 3CL protease; given as class symbols) [µM] | EC50 (SARS-CoV-2; CellTiter-Glo 2.0) [µM] | IC50 (SARS-CoV-2 3CL protease; RapidFire MS) [µM] |
| --- | --- | --- | --- | --- |
| COc1ccc(Nc2nc(=O)n(Cc3ccc[nH]c3=O)c(=O)n2Cc2ccc(F)c(Cl)c2)cc1 [Compound I-0252] | 1 to 10 | < 0.1 |  |  |
| COc1ccc(Nc2nc(=O)n(Cc3cc(N4CCCC4)c[nH]c3=O)c(=O)n2Cc2cc(F)c(F)c(F)c2)cc1 [II-0014] |  |  | 22.1 | 2.4 |
| Cc1cncc(-n2c(=O)nc(Nc3ccc4nc(C)oc4c3)n(Cc3ccc(F)c(C#N)c3)c2=O)c1 [II-0105] | < 1 | < 0.1 |  |  |
| Cc1cncc(-n2c(=O)nc(Nc3cc4c(cc3Cl)OCCC4)n(Cc3ccc(F)c(C#N)c3)c2=O)c1 [II-0144] | < 1 | < 0.1 |  |  |
| CNC(=O)Cn1cc2cc(Nc3nc(=O)n(-c4cncc5ccccc45)c(=O)n3Cc3cc(F)c(F)cc3F)c(Cl)cc2n1 [II-0556] | 1 to 10 | < 0.1 |  |  |
| Cc1cncc(-n2c(=O)nc(Nc3cc4sc(NC5CC5)nc4cc3Cl)n(Cc3ccc(F)c(C#N)c3)c2=O)c1 [II-0303] | < 1 | < 0.1 |  |  |
| Cc1cncc(-n2c(=O)nc(NC3CCC3)n(Cc3cc(F)c(F)c(F)c3)c2=O)c1 [II-0227] | < 1 |  |  | 0.63 |
| CNc1cncc(-n2c(=O)nc(Nc3cc4cn(C)nc4cc3Cl)n(Cc3cc(F)c(F)cc3F)c2=O)c1 [II-0600] | < 1 | < 0.1 |  |  |
| Cn1cnc(Cn2c(=O)nc(Nc3cc4cn(C5CCOCC5)nc4cc3Cl)n(Cc3cc(F)c(F)cc3F)c2=O)n1 [II-0102] | 1 to 10 | < 0.1 |  |  |
| Cn1cc2cc(Nc3nc(=O)n(-c4cncc5ccccc45)c(=O)n3Cc3ccc(F)c(C#N)c3)c(F)cc2n1 [Compound I-0429] | < 1 | < 0.1 |  |  |
| Cc1cncc(-n2c(=O)nc(Nc3cc4cn(C)nc4cc3Cl)n(Cc3cc(F)c(F)cc3Cc3ccccc3)c2=O)c1 [II-0094] | 1 to 10 | < 0.1 |  |  |
| CCNc1nc2cc(Cl)c(Nc3nc(=O)n(Cc4ncn(C)n4)c(=O)n3Cc3cc(F)c(F)cc3F)cc2s1 [II-0339] | < 1 | < 0.1 |  |  |
| Cc1cncc(-n2c(=O)nc(Nc3cc4cn(C)nc4cc3Cl)n(Cc3cc(C#N)ccc3Cc3cccc(Cl)c3)c2=O)c1 [II-0181] | < 1 | < 0.1 |  |  |
| O=c1[nH]cc(Cl)cc1Cn1c(=O)nc(Nc2cc3cn(CCCO)nc3cc2Cl)n(Cc2cc(F)c(F)c(F)c2)c1=O [Compound I-0454] | 1 to 10 | < 0.1 |  |  |
| Cn1cc2cc(Nc3nc(=O)n(Cc4ccccn4)c(=O)n3Cc3cc(F)c(F)cc3F)c(Cl)cc2n1 [II-0251] | < 1 | < 0.1 |  |  |
| O=c1[nH]cccc1Cn1c(=O)nc(Nc2cc3c(cc2Cl)OCC3)n(Cc2cc(F)c(F)c(F)c2)c1=O [Compound I-0239] |  |  | 0.225 | 0.0039 |
| COc1cc(Cl)c(Nc2nc(=O)n(Cc3ccc[nH]c3=O)c(=O)n2Cc2cc(F)c(F)c(F)c2)c(OC)c1 [Compound I-0094] | 1 to 10 | < 0.1 |  |  |
